Legend:
[1] = system: phospho-S6RP (Ser 235/236) in RBE cells; assay: Cellular Proliferation Protocol (cellular phospho-S6RP HTRF), RBE cells; type: cell-based; conditions: 6 hours treatment, RBE or SNU-1079 cells, cell line not given
Procedure: Cellular Proliferation Protocol
Cellular phospho-S6RP (Ser 235/236) was measured using a Fluorescence Resonance Energy Transfer (FRET) sandwich assay format (Cisbio HTRF Cat. No. 64RP6PEG). This format uses 2 different, labelled antibodies (Eu^3+-Cryptate donor and d2 acceptor) that positively modulate a specific signal in proportion to phospho-S6RP (Ser 235/236) directly in cells. RBE or SNU-1079 cells were cultivated in T-75 flasks at 37° C., 5% CO2, 95% relative humidity in RPMI 1640 medium with 10% FBS and 1% Penicillin/Streptomycin and detached with trypsin/EDTA at 80-90% confluency. Cells were then seeded in 40 μL volume per well in 384-well flat-bottom polystyrene microplates (Corning Cat. No. 3570) at a seeding density of 2000 cells/well for RBE and 3000 cells/well for SNU-1079 followed by 24 hour incubation at 37° C., 5% CO2, 95% relative humidity. On the next day, compounds were diluted to […] the indicated concentrations and 40 nL of these treatment compounds, along with DMSO vehicle control, were added to the cells (final concentration of compounds is then the indicated concentrations). Treatment was carried out for 6 hours at 37° C., 5% CO2, 95% relative humidity after which the plates were cooled to room temperature before aspirating the medium. Cells were then lysed on a shaker for 45 minutes at room temperature with 20 μL of 1× supplemented lysis buffer per well. After lysis, 5 μL of pre-mixed antibodies was added per well. Plates were covered with black sealing film and incubated overnight at room temperature on a shaker before being read on a PerkinElmer EnVision microplate reader. Percent activation was calculated relative to DMSO control and IC50 values were obtained from dose-response data fitted to a 4-parameter curve.

SRC = SRC (Homo sapiens, UniProt P12931); assay: SRC Biochemical Assay Protocol (microfluidic mobility shift assay, FLPeptide4 substrate)
Sequence of SRC (P12931 whole entry, species assumed): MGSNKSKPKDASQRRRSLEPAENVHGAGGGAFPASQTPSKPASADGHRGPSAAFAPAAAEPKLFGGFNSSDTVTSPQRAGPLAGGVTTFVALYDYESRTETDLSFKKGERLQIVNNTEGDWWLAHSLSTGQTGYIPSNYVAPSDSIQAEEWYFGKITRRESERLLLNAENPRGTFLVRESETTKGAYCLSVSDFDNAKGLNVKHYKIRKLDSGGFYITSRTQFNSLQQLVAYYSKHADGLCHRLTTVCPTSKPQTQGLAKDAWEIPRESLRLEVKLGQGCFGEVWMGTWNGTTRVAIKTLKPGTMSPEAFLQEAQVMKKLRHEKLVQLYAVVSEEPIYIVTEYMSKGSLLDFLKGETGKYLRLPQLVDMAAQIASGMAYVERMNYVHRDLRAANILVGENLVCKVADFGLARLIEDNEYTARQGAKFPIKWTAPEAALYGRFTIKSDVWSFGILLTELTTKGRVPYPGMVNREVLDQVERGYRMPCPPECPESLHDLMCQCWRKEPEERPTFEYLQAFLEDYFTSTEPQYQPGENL
In short: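 Recombinant SRC (0.26 nM) preincubated 30 min at RT with compound (0.0017–100 μM) and 1.5 μM FLPeptide4, then 50 μM ATP added; 90 min reaction in HEPES pH 7.4, 10 mM MgCl2, 1% DMSO, EDTA-quenched. Phosphopeptide quantified by microfluidic mobility shift; IC50 from 4-parameter logistic fit.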

RBE cells = assay: Cell Viability Protocol (CellTiterGlo), RBE cells; type: cell-based; conditions: RBE or SNU-1079 cells, 72 or 120 hour, cell line and time not given
In short: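 RBE cells plated at 1200/well in RPMI 1640 with 10% FBS, incubated 24 h, then dosed with compound from DMSO stocks and incubated 72 or 120 h at 37° C. CellTiterGlo luminescence normalised to DMSO control; IC50 from 4-parameter fit.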

IC50 (SRC) | SMILES | IC50 ([1]; 6 h) | IC50 (RBE cells) | IC50 [1]
10 to 1000 nM | C=CC(=O)N1CCC(C#Cc2c(-c3ccc(Oc4cccc(C)n4)cc3)c3c(N)ncnc3n2C(C)C)CC1 [Example I-23] | 10 to 1000 nM | 10 to 1000 nM | 
10 to 1000 nM | C=CC(=O)N1CC[C@@H](N2CC(C#Cc3c(-c4ccc(Cl)c(C)c4)c4c(N)ncnc4n3C)C2)[C@@H](O)C1 [II-64] |  | 10 to 1000 nM | 10 to 1000 nM
1000 to 10000 nM | C=CC(=O)N1CCC(N2CC(C#Cc3c(-c4ccc(Oc5ccccc5)cc4)c4c(N)ncnc4n3C3CC(=O)N(C)C3)C2)CC1 (stereo not drawn) [II-213, 4-(6-((1-(1-acryloylpiperidin-4-yl)azetidin-3-yl)ethynyl)-4-amino-5-(4-phenoxyphenyl)-7H-pyrrolo[2,3-d]pyrimidin-7-yl)-1-methylpyrrolidin-2-one] | 1000 to 10000 nM | 1000 to 10000 nM | 
10 to 1000 nM | C=CC(=O)N1C[C@@H]2[C@@H](C#Cc3c(-c4cc(Cl)ccc4OC)c4c(N)ncnc4n3C)[C@@H]2C1 [II-260] | 10 to 1000 nM | 10 to 1000 nM | 

More lines, now with the values behind:

SMILES | IC50 (SRC) | IC50 ([1]; 6 h) | IC50 (RBE cells) | IC50 [1]
COCCN(C)C/C=C/C(=O)N1C[C@@H]2[C@@H](C#Cc3c(-c4ccc(Oc5cccc(F)c5)cc4)c4c(N)ncnc4n3C)[C@@H]2C1 [II-232, (E)-1-((1R,5S,6s)-6-((4-amino-5-(4-(3-fluorophenoxy)phenyl)-7-methyl-7H-pyrrolo[2,3-d]pyrimidin-6-yl)ethynyl)-3-azabicyclo[3.1.0]hexan-3-yl)-4-((2-methoxyethyl) (methyl)amino)but-2-en-1-one] | 10 to 1000 nM | 10 to 1000 nM | 10 to 1000 nM | 
C=CC(=O)N1CC2(CC(C#Cc3c(-c4ccc(Oc5ccccc5)cc4)c4c(N)ncnc4n3C(C)C)C2)C1 [Example I-19] | ≤ 10 nM | ≤ 10 nM | ≤ 10 nM | 
C=CC(=O)N1CC[C@@H](N2CC(C#Cc3c(-c4ccc(Oc5cccc(C)n5)cc4)c4c(N)ncnc4n3C)C2)[C@@H](F)C1 [II-201, 1-((3S,4R)-4-(3-((4-amino-7-methyl-5-(4-(6-methylpyridin-2-yloxy)phenyl)-7H-pyrrolo[2,3-d]pyrimidin-6-yl)ethynyl)azetidin-1-yl)-3-fluoropiperidin-1-yl)prop-2-en-1-one] | 10 to 1000 nM | 10 to 1000 nM | 10 to 1000 nM | 
C=CS(=O)(=O)N1CCC(N2CC(C#Cc3c(-c4ccc(Oc5ccccc5)c(OC)n4)c4c(N)ncnc4n3C)C2)CC1 [II-322] | ≤ 10 nM |  | 10 to 1000 nM | 10 to 1000 nM
C=CC(=O)N1CC[C@@H](N2CC(C#Cc3c(-c4ccc5c(c4)OCCN5C)c4c(N)ncnc4n3C)C2)[C@@H](O)C1 [II-75] | 1000 to 10000 nM |  | 1000 to 10000 nM | 1000 to 10000 nM
C=CC(=O)N1CC[C@@H](N2CC(C#Cc3c(-c4ccc(Cl)c(CO)c4)c4c(N)ncnc4n3C)C2)[C@@H](O)C1 [II-59] | 10 to 1000 nM |  | 1000 to 10000 nM | 10 to 1000 nM
C=CC(=O)N1CCC(N2CC(F)(C#Cc3c(-c4ccc(Oc5cccc(C)n5)cc4)c4c(N)ncnc4n3C)C2)C[C@H]1CO (stereo partly drawn) [II-204, 1-((2S)-4-(3-((4-amino-7-methyl-5-(4-((6-methylpyridin-2-yl)oxy)phenyl)-7H-pyrrolo[2,3-d]pyrimidin-6-yl)ethynyl)-3-fluoroazetidin-1-yl)-2-(hydroxymethyl)piperidin-1-yl)prop-2-en-1-one] | 10 to 1000 nM | 10 to 1000 nM | 10 to 1000 nM | 
C=CC(=O)N1CC[C@@H](N2CC(C#Cc3c(-c4ccc(Oc5ccsn5)cc4)c4c(N)ncnc4n3C)C2)[C@@H](O)C1 [II-12] | 10 to 1000 nM | 10 to 1000 nM | 10 to 1000 nM | 
C=CC(=O)N1CCC(N2CC(C#Cc3c(-c4cccc5c4OCO5)c4c(N)ncnc4n3C)C2)CC1 [II-37] | 10 to 1000 nM |  | 10 to 1000 nM | 10 to 1000 nM

Reference: patent US20250154154A1 (Relay Binney Street, 2nd Floor, priority 2020, published 2025)
